{"source": "ChEMBL document CHEMBL5050851", "about": "“Compounds that induce ferroptic cell death” (2020)", "key": {"ES-2": {"tested_on": "ES-2", "test": "Antiproliferative activity against human ES2 cells assessed as cell death after 72 hrs by Alamar blue viability assay", "format": "functional, cell-based", "conditions": "ES-2, 72 h"}, "HCT-116": {"tested_on": "HCT-116", "test": "Antiproliferative activity against human HCT-116 cells assessed as cell death after 72 hrs by Alamar blue viability assay", "format": "functional, cell-based", "conditions": "HCT-116, 72 h"}}, "data": [{"smiles": "C[C@@H]1CC[C@@]23C[C@H](O)C(=O)[C@@]2(O)[C@]1(C)[C@H](OC(=O)CI)C[C@@H](C1=CCn2c(=O)n(-c4ccccc4)c(=O)n2C1)[C@@H]3C", "values": [{"measurement": "IC50", "setting": "ES-2", "value": 0.24, "unit": "µM"}, {"measurement": "IC50", "setting": "HCT-116", "value": 0.66, "unit": "µM"}]}, {"smiles": "CO[C@H]1C[C@@]23CC[C@@H](C)[C@@](C)([C@H](OC(=O)C(Cl)Cl)C[C@@H](C4=CCn5c(=O)n(-c6ccccc6)c(=O)n5C4)[C@@H]2C)[C@]3(O)C1=O", "values": [{"measurement": "IC50", "setting": "ES-2", "value": "> 100", "unit": "µM"}, {"measurement": "IC50", "setting": "HCT-116", "value": "> 100", "unit": "µM"}]}, {"smiles": "C#CCN1C(=O)C2CC=C([C@@H]3C[C@@H](OC(=O)CCl)[C@]4(C)[C@H](C)CC[C@]5(C[C@H](O)C(=O)[C@]54O)[C@H]3C)CC2C1=O", "note": "(stereo partly drawn)", "values": [{"measurement": "IC50", "setting": "ES-2", "value": 4, "unit": "µM"}, {"measurement": "IC50", "setting": "HCT-116", "value": 10.5, "unit": "µM"}]}, {"smiles": "C=CC(=C)[C@@H]1C[C@@H](OC(=O)CCl)[C@]2(C)[C@H](C)CC[C@]3(C[C@H](O)C(=O)[C@]32O)[C@H]1C", "values": [{"measurement": "IC50", "setting": "ES-2", "value": 6.7, "unit": "µM"}]}, {"smiles": "C[C@@H]1CC[C@@]23C[C@H](O)C(=O)[C@@]2(O)[C@]1(C)[C@H](OC(=O)CF)C[C@@H](C1=CCn2c(=O)n(-c4ccccc4)c(=O)n2C1)[C@@H]3C", "values": [{"measurement": "IC50", "setting": "ES-2", "value": 34, "unit": "µM"}, {"measurement": "IC50", "setting": "HCT-116", "value": "> 100", "unit": "µM"}]}, {"smiles": "CO[C@H]1C[C@@]23CC[C@@H](C)[C@@](C)([C@H](OC(C)=O)C[C@@H](C4=CCn5c(=O)n(-c6ccccc6)c(=O)n5C4)[C@@H]2C)[C@]3(O)C1=O", "values": [{"measurement": "IC50", "setting": "ES-2", "value": "> 100", "unit": "µM"}, {"measurement": "IC50", "setting": "HCT-116", "value": "> 100", "unit": "µM"}]}, {"smiles": "C[C@@H]1CC[C@@]23C[C@H](O)C(=O)[C@@]2(O)[C@]1(C)[C@H](OC(=O)CCl)C[C@@H](C1=CCC2C(=O)N(c4ccccc4)C(=O)C2C1)[C@@H]3C", "note": "(stereo partly drawn)", "values": [{"measurement": "IC50", "setting": "ES-2", "value": 2.5, "unit": "µM"}, {"measurement": "IC50", "setting": "HCT-116", "value": 6.4, "unit": "µM"}]}]}
